System: Krebszellen der Zellinie BIR-M1Rk
Type: cell-based, Marshall-Ratten

Compound: COC(CCOCc1ccccc1)(CCOP(N)(=O)N(CCCl)CCCl)OC (racemic) [Beispiel 6]
- um den Faktor verringerte Überlebensrate der Krebszellen (pH 6): 10 000
- Toxizität (pH 7): nur eine geringe Toxizität
